The record followed here is ChEMBL document CHEMBL5030557, “Tandem Repeat of a Short Human Chemerin-Derived Peptide and Its Nontoxic d-Lysine-Containing Enantiomer Display Broad-Spectrum Antimicrobial and Antitubercular Activities” (J Med Chem, 2021).

In the assay the test system is Mycobacterium tuberculosis variant bovis. Briefly: Anti-mycobacterial activity against Mycobacterium bovis assessed as growth inhibition at 16.13 uM relative to control. In kind it is functional.

Take `CC(C)C[C@H](NC(=O)[C@H](CCCNC(=N)N)NC(=O)CNC(=O)[C@H](CC(C)C)NC(=O)[C@@H](NC(=O)[C@@H](CCCCN)NC(=O)[C@@H](NC(=O)[C@H](CC(C)C)NC(=O)[C@H](CCCNC(=N)N)NC(=O)CNC(=O)[C@H](CC(C)C)NC(=O)[C@@H](NC(=O)[C@@H](N)CCCCN)C(C)C)C(C)C)C(C)C)C(=O)N[C@H](C(N)=O)C(C)C`: the inhibition (in general, the share of the control response that was lost under treatment) at 16.13 µM came out at 95%.
The same measure for `CC(C)C[C@H](NC(=O)[C@H](CCCNC(=N)N)NC(=O)CNC(=O)[C@H](CC(C)C)NC(=O)[C@@H](NC(=O)[C@H](CCCCN)NC(=O)[C@@H](NC(=O)[C@H](CC(C)C)NC(=O)[C@H](CCCNC(=N)N)NC(=O)CNC(=O)[C@H](CC(C)C)NC(=O)[C@@H](NC(=O)[C@@H](N)CCCCN)C(C)C)C(C)C)C(C)C)C(=O)N[C@H](C(N)=O)C(C)C`: 80%.
